Experimental data: the supplement of paper PMC7287046

Key:
Details in all cases: exposure time: 72 h
T98 [1] = tested on: T98
Method: (§1)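 Glioma cell lines and primary cultures were treated with single drugs in a nine-step threefold dilution series, about 72 h. Viability was read by CellTiter-Glo and normalised to untreated controls. Absolute IC50 was fitted in GraphPad Prism; values beyond the tested dose range are censored at the block's top or lowest dose.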

SF539 [2] = tested on: SF539
Method: as §1

U87 [3] = tested on: U87
Method: as §1

KNS42 [4] = tested on: KNS42
Method: as §1

SNB75 [5] = tested on: SNB75
Method: as §1

U118 [6] = tested on: U118
Method: as §1

AM38 [7] = tested on: AM38
Method: as §1

SF268 [8] = tested on: SF268
Method: as §1

U251 [9] = tested on: U251
Method: as §1

T98G [10] = assay: Bliss synergy score (Combenefit); higher = more synergy; extreme values may be limits of the assay
Method in brief: (§2)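 Drug pairs were tested on glioma cell lines in 96-well plates, each pair laid out as a 6 × 6 matrix of twofold dilutions added 24 h after plating. The highest concentration of each drug matched its own IC50. Plates were read three days later, at least in triplicate, and CellTiter-Glo viability was expressed as percent of DMSO controls. From the normalised matrices, Combenefit computed Loewe, Bliss and highest single agent synergy scores.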

SF539 [11] = assay: as above
Method in brief: as §2

U87 [12] = assay: as above
Method in brief: as §2

SNB75 [13] = assay: as above
Method in brief: as §2

U118 [14] = assay: as above
Method in brief: as §2

KNS-42 [15] = assay: as above
Method in brief: as §2

AM-38 [16] = assay: as above
Method in brief: as §2

SF268 [17] = assay: as above
Method in brief: as §2

U251 [18] = assay: as above
Method in brief: as §2

T98G [19] = assay: Loewe synergy score (Combenefit); higher = more synergy; extreme values may be limits of the assay
Method in brief: as §2

SF539 [20] = assay: as above
Method in brief: as §2

U87 [21] = assay: as above
Method in brief: as §2

SNB75 [22] = assay: as above
Method in brief: as §2

U118 [23] = assay: as above
Method in brief: as §2

KNS-42 [24] = assay: as above
Method in brief: as §2

AM-38 [25] = assay: as above
Method in brief: as §2

SF268 [26] = assay: as above
Method in brief: as §2

U251 [27] = assay: as above
Method in brief: as §2

T98G [28] = assay: HSA synergy score (Combenefit); higher = more synergy
Method in brief: as §2

SF539 [29] = assay: as above
Method in brief: as §2

U87 [30] = assay: as above
Method in brief: as §2

SNB75 [31] = assay: as above
Method in brief: as §2

U118 [32] = assay: as above
Method in brief: as §2

KNS-42 [33] = assay: as above
Method in brief: as §2

AM-38 [34] = assay: as above
Method in brief: as §2

SF268 [35] = assay: as above
Method in brief: as §2

U251 [36] = assay: as above
Method in brief: as §2

T98 [37] = assay: Chou-Talalay combination index (dimensionless); higher = less synergy (more antagonism)
Method in brief: (§3)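 Glioma cell lines were plated at optimal density in 96-well plates (low-adhesion plates for primary cultures). After 24 h they received a 6 × 6 matrix of two drugs in twofold dilutions, each topped at its single-drug IC50, with an untreated control repeated sixfold. Three days later, viability was read by CellTiter-Glo as percent of DMSO controls, at least in triplicate. The Chou–Talalay combination index was computed by the median effect principle from single and combined viabilities.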

SF539 [38] = assay: as above
Method in brief: as §3

U87 [39] = assay: as above
Method in brief: as §3

KNS42 [40] = assay: as above
Method in brief: as §3

SNB75 [41] = assay: as above
Method in brief: as §3

U118 [42] = assay: as above
Method in brief: as §3

AM38 [43] = assay: as above
Method in brief: as §3

SF268 [44] = assay: as above
Method in brief: as §3

U251 [45] = assay: as above
Method in brief: as §3

## N#CC(c1ccnc(NCCc2cccnc2)n1)c1nc2ccccc2s1 (stereo not drawn)
T98 [1]
  IC50 (absolute, viability): 7.19 µM
SF539 [2]
  IC50 (absolute, viability): 3.71 µM
U87 [3]
  IC50 (absolute, viability): 24.5 µM
KNS42 [4]
  IC50 (absolute, viability): 27.3 µM
SNB75 [5]
  IC50 (absolute, viability): 13.1 µM
U118 [6]
  IC50 (absolute, viability): 20.1 µM
AM38 [7]
  IC50 (absolute, viability): 10 µM
SF268 [8]
  IC50 (absolute, viability): 7.05 µM
U251 [9]
  IC50 (absolute, viability): 11.3 µM

## CO[C@H]1C[C@@H]2CC[C@@H](C)[C@@](O)(O2)C(=O)C(=O)N2CCCC[C@H]2C(=O)O[C@H]([C@H](C)C[C@@H]2CC[C@@H](O)[C@H](OC)C2)CC(=O)[C@H](C)/C=C(\C)[C@@H](O)[C@@H](OC)C(=O)[C@H](C)C[C@H](C)/C=C/C=C/C=C/1C [Rapamycin]
T98 [1]
  IC50 (absolute, viability): < 0.00302 µM
SF539 [2]
  IC50 (absolute, viability): < 0.00302 µM
KNS42 [4]
  IC50 (absolute, viability): > 6.6 µM
SNB75 [5]
  IC50 (absolute, viability): > 6.6 µM
U118 [6]
  IC50 (absolute, viability): > 6.6 µM
AM38 [7]
  IC50 (absolute, viability): < 0.00302 µM

## CO[C@H]1C[C@@H]2CC[C@@H](C)[C@@](O)(O2)C(=O)C(=O)N2CCCC[C@H]2C(=O)O[C@H]([C@H](C)C[C@@H]2CC[C@@H](O)[C@H](OC)C2)CC(=O)[C@H](C)/C=C(\C)[C@@H](O)[C@@H](OC)C(=O)[C@H](C)C[C@H](C)/C=C/C=C/C=C/1C [Rapamycin] + CCOc1nc(NC(=O)Cc2cc(OC)ccc2OC)cc(N)c1C#N [JNK inhibitor VIII]
T98G [10]
  Bliss synergy score: 0.183
SF539 [11]
  Bliss synergy score: 0
U87 [12]
  Bliss synergy score: 4.63
SNB75 [13]
  Bliss synergy score: 0.0362
U118 [14]
  Bliss synergy score: 0
KNS-42 [15]
  Bliss synergy score: 1.98
AM-38 [16]
  Bliss synergy score: 0
SF268 [17]
  Bliss synergy score: 0
U251 [18]
  Bliss synergy score: 6.55
T98G [19]
  Loewe synergy score: 0.183
SF539 [20]
  Loewe synergy score: 0.362
U87 [21]
  Loewe synergy score: 0.748
SNB75 [22]
  Loewe synergy score: 16.7
U118 [23]
  Loewe synergy score: 1.75
KNS-42 [24]
  Loewe synergy score: 6.4
AM-38 [25]
  Loewe synergy score: 3.73
SF268 [26]
  Loewe synergy score: 0.192
U251 [27]
  Loewe synergy score: 5.59
T98G [28]
  HSA synergy score: 0.183
SF539 [29]
  HSA synergy score: 0.625
U87 [30]
  HSA synergy score: 5.37
SNB75 [31]
  HSA synergy score: 19.9
U118 [32]
  HSA synergy score: 2.12
KNS-42 [33]
  HSA synergy score: 6.4
AM-38 [34]
  HSA synergy score: 3.73
SF268 [35]
  HSA synergy score: 0.46
U251 [36]
  HSA synergy score: 8.47
T98 [37]
  Chou-Talalay combination index: 0.917
SF539 [38]
  Chou-Talalay combination index: 1.09
U87 [39]
  Chou-Talalay combination index: 0.776
KNS42 [40]
  Chou-Talalay combination index: 0.843
SNB75 [41]
  Chou-Talalay combination index: 0.706
U118 [42]
  Chou-Talalay combination index: 1.1
AM38 [43]
  Chou-Talalay combination index: 0.906
SF268 [44]
  Chou-Talalay combination index: 1.09
U251 [45]
  Chou-Talalay combination index: 0.74

## CO[C@H]1C[C@@H]2CC[C@@H](C)[C@@](O)(O2)C(=O)C(=O)N2CCCC[C@H]2C(=O)O[C@H]([C@H](C)C[C@@H]2CC[C@@H](O)[C@H](OC)C2)CC(=O)[C@H](C)/C=C(\C)[C@@H](O)[C@@H](OC)C(=O)[C@H](C)C[C@H](C)/C=C/C=C/C=C/1C [Rapamycin] + C[C@@H](Oc1cc(-c2cnn(C3CCNCC3)c2)cnc1N)c1c(Cl)ccc(F)c1Cl [Crizotinib]
T98G [10]
  Bliss synergy score: 0
SF539 [11]
  Bliss synergy score: 0
U87 [12]
  Bliss synergy score: 11.2
SNB75 [13]
  Bliss synergy score: 0.128
U118 [14]
  Bliss synergy score: 0
KNS-42 [15]
  Bliss synergy score: 3.73
AM-38 [16]
  Bliss synergy score: 0
SF268 [17]
  Bliss synergy score: 0.0254
U251 [18]
  Bliss synergy score: 5.62
T98G [19]
  Loewe synergy score: 0
SF539 [20]
  Loewe synergy score: 3.24
U87 [21]
  Loewe synergy score: 16.4
SNB75 [22]
  Loewe synergy score: 9.67
U118 [23]
  Loewe synergy score: 5.03
KNS-42 [24]
  Loewe synergy score: 18.6
AM-38 [25]
  Loewe synergy score: 0
SF268 [26]
  Loewe synergy score: 8.2
U251 [27]
  Loewe synergy score: 26
T98G [28]
  HSA synergy score: 0
SF539 [29]
  HSA synergy score: 3.78
U87 [30]
  HSA synergy score: 19.4
SNB75 [31]
  HSA synergy score: 10.4
U118 [32]
  HSA synergy score: 5.07
KNS-42 [33]
  HSA synergy score: 19.5
AM-38 [34]
  HSA synergy score: 0.00484
SF268 [35]
  HSA synergy score: 8.72
U251 [36]
  HSA synergy score: 26.2
T98 [37]
  Chou-Talalay combination index: 1.1
SF539 [38]
  Chou-Talalay combination index: 0.968
U87 [39]
  Chou-Talalay combination index: 0.683
KNS42 [40]
  Chou-Talalay combination index: 0.807
SNB75 [41]
  Chou-Talalay combination index: 0.943
U118 [42]
  Chou-Talalay combination index: 1
AM38 [43]
  Chou-Talalay combination index: 1.07
SF268 [44]
  Chou-Talalay combination index: 0.928
U251 [45]
  Chou-Talalay combination index: 0.715

## CO[C@H]1C[C@@H]2CC[C@@H](C)[C@@](O)(O2)C(=O)C(=O)N2CCCC[C@H]2C(=O)O[C@H]([C@H](C)C[C@@H]2CC[C@@H](O)[C@H](OC)C2)CC(=O)[C@H](C)/C=C(\C)[C@@H](O)[C@@H](OC)C(=O)[C@H](C)C[C@H](C)/C=C/C=C/C=C/1C [Rapamycin] + Cc1cc([C@@H](C)Nc2ccccc2C(=O)O)c2nc(N3CCOCC3)cc(=O)n2c1 [AZD6482]
T98G [10]
  Bliss synergy score: 0.59
SF539 [11]
  Bliss synergy score: 0
U87 [12]
  Bliss synergy score: 0
SNB75 [13]
  Bliss synergy score: 3.78
U118 [14]
  Bliss synergy score: 0
KNS-42 [15]
  Bliss synergy score: 1.42
AM-38 [16]
  Bliss synergy score: 1.1
SF268 [17]
  Bliss synergy score: 0.00824
U251 [18]
  Bliss synergy score: 1.43
T98G [19]
  Loewe synergy score: 12
SF539 [20]
  Loewe synergy score: 5.95
U87 [21]
  Loewe synergy score: 0
SNB75 [22]
  Loewe synergy score: 21.8
U118 [23]
  Loewe synergy score: 2.56
KNS-42 [24]
  Loewe synergy score: 2.6
AM-38 [25]
  Loewe synergy score: 9.55
SF268 [26]
  Loewe synergy score: 3.35
U251 [27]
  Loewe synergy score: 1.43
T98G [28]
  HSA synergy score: 14.4
SF539 [29]
  HSA synergy score: 6.85
U87 [30]
  HSA synergy score: 0
SNB75 [31]
  HSA synergy score: 25.2
U118 [32]
  HSA synergy score: 3.28
KNS-42 [33]
  HSA synergy score: 2.6
AM-38 [34]
  HSA synergy score: 12.4
SF268 [35]
  HSA synergy score: 3.85
U251 [36]
  HSA synergy score: 1.43
T98 [37]
  Chou-Talalay combination index: 0.924
SF539 [38]
  Chou-Talalay combination index: 1.05
U87 [39]
  Chou-Talalay combination index: 0.974
KNS42 [40]
  Chou-Talalay combination index: 0.912
SNB75 [41]
  Chou-Talalay combination index: 0.75
U118 [42]
  Chou-Talalay combination index: 1.16
AM38 [43]
  Chou-Talalay combination index: 0.643
SF268 [44]
  Chou-Talalay combination index: 1.02
U251 [45]
  Chou-Talalay combination index: 0.927
